Experimental data as given in ChEMBL document CHEMBL1201862, “PubChem BioAssay data set” (2004).
The source made the active and inactive calls.

Legend:
[1] = target: Adenosylmethionine-8-amino-7-oxononanoate aminotransferase (Mycobacterium tuberculosis, UniProt P9WQ81); assay: Mycobacterium tuberculosis BioA enzyme inhibitor Measured in Biochemical System Using Plate Reader - 2163-02_Inhibitor_Dose_CherryPick_Activity.; type: functional, Mycobacterium tuberculosis UT205
[2] = StAR promoter reporter inhibition counter-screen, dose response, counter-screen for LRH-1 inverse agonist project, cell-based, luminescence, luciferase reporter (AID 651969); type: functional
Steroidogenic factor 1 = Steroidogenic factor 1 (Homo sapiens, UniProt Q13285); assay: Counterscreen for inverse agonists of the liver receptor homolog-1 (LRH-1; NR5A2): Luminescence-based cell-based high throughput dose response assay to identify inverse agonists of the Steroidogenic Factor 1 Nuclear Receptor (SF1; NR5A1).; type: functional
Steroidogenic factor 1, sequence (Q13285 whole entry): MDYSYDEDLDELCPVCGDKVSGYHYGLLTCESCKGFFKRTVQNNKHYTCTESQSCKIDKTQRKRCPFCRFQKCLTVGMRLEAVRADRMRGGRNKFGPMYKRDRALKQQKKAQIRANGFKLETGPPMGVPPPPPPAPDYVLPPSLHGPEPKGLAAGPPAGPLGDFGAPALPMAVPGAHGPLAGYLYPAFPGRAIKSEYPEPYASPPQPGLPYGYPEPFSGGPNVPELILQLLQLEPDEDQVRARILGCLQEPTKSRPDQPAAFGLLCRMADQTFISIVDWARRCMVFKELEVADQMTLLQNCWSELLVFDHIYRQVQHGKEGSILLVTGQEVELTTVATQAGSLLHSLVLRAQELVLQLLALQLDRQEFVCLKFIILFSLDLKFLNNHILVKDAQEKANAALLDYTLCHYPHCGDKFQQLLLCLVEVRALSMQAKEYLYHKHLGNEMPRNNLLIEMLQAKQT

[3] = target: Nuclear receptor subfamily 5 group A member 2 (Homo sapiens, UniProt O00482); type: functional, cell-based;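 also: HEK293T cells transfected with LRH-1 and a StAR promoter luciferase reporter; potency for inhibitors that lower LRH-1 driven reporter light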
Nuclear receptor subfamily 5 group A member 2, sequence (O00482 whole entry): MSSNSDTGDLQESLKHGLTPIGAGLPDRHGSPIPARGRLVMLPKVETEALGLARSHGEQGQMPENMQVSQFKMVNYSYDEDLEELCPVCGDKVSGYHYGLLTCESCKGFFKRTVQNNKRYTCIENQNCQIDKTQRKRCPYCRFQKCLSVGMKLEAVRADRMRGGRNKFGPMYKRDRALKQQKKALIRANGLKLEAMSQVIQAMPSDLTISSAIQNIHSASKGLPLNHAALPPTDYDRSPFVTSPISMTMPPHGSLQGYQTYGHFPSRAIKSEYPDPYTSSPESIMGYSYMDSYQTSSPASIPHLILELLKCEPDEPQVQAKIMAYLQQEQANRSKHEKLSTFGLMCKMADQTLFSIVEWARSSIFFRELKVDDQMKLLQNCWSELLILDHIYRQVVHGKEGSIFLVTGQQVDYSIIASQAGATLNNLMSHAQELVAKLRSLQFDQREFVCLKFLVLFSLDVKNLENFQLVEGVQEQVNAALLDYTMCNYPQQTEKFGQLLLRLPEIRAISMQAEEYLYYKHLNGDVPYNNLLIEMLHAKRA

[4] = Counterscreen for inhibitors of Trypanosoma brucei methionyl tRNA synthetase (MetRS): Luminescence-based cell-based high throughput dose response assay to identify compounds that are cytotoxic to Jurkat human T lymphocyte cells.; type: functional
[5] = target: T1, Methionyl-tRNA synthetase, putative (Trypanosoma brucei brucei, UniProt Q38C91); type: functional, Trypanosoma brucei brucei strain 927/4 GUTat10.1;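 also: Read-out by fluorescence polarization, run as a confirmatory high-throughput counterscreen; potency of MetRS inhibitors measured by reduced AMP formation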
T1 sequence (Q38C91 whole entry): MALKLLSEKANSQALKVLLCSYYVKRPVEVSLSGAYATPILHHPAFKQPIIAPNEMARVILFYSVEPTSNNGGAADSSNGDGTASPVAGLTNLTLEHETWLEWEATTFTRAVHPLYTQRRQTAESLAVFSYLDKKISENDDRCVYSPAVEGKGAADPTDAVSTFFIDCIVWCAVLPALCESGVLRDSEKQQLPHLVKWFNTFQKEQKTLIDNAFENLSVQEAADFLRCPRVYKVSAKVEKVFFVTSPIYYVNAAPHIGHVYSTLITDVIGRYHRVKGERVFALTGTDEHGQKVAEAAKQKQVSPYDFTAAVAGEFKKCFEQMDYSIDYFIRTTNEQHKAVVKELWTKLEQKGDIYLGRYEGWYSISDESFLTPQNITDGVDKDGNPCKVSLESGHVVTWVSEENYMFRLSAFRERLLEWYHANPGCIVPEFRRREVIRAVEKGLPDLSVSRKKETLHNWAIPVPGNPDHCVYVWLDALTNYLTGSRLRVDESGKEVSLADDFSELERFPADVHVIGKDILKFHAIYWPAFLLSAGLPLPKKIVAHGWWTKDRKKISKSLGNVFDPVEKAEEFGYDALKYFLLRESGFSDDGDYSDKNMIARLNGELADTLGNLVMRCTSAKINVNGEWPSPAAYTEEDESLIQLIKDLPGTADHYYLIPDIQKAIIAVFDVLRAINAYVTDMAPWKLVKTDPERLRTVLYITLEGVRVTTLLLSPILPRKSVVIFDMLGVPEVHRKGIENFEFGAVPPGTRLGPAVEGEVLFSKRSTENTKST

[6] = A Cell Based Secondary Assay To Explore Cytotoxicity of Compounds that Sensitize Mycobacterium Tuberculosis to Beta-Lactam Antibiotics.; type: functional
[7] = AlphaScreen signal interference compounds, dose response, artefact control for ARNT-TACC3 interaction inhibitor project, biochemical, luminescence, cherry-pick (AID 651705); type: functional;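 also: AlphaScreen bead proximity signal that flags compounds interfering with the detection technology; potency reflects signal decrease which marks the compound as an assay artifact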
Nonstructural protein 1 = Nonstructural protein 1 (Influenza A virus, UniProt Q194T2); type: functional, Influenza A virus (A/California/07/2009(H1N1))
Nonstructural protein 1, sequence (Q194T2 whole entry): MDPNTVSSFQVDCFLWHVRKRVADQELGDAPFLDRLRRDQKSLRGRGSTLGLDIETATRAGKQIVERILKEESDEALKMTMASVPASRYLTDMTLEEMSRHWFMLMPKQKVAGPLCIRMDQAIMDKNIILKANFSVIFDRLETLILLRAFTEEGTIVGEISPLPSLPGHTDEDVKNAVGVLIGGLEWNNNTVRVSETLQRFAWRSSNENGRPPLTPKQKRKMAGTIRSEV

[8] = microbe, parasite or virus in culture; type: functional; conditions: Mycobacterium tuberculosis
[9] = target: T2, Microphthalmia-associated transcription factor (Homo sapiens, UniProt O75030); assay: TRPM1 promoter luciferase signal decrease, dose response, MITF inhibitor project, cell-based, SK-MEL-5, cherry-picked, set 3 (AID 493073); type: functional
T2 sequence (O75030 whole entry): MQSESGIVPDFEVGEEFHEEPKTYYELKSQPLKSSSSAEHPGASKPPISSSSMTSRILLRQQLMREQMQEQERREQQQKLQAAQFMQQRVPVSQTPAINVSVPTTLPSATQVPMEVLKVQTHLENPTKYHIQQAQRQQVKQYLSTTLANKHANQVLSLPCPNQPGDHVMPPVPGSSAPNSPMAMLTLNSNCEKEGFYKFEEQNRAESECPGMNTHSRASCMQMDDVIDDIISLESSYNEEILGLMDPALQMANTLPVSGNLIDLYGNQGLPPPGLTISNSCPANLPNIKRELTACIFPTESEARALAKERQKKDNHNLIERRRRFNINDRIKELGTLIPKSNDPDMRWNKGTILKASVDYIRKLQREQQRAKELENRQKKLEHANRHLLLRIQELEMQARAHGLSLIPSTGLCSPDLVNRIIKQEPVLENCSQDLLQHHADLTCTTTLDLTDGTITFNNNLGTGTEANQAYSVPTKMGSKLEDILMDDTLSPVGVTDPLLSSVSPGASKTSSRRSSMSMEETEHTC

[10] = target: T3, Corticotropin-releasing factor receptor 2/Corticotropin-releasing factor-binding protein (Homo sapiens, UniProt P24387+Q13324); assay: Dose Response confirmation of uHTS hits for small molecule antagonists of the CRF-binding protein and CRF-R2 receptor complex.; type: functional; conditions: read-out: IC50_Mean
T3 sequence (Q13324 whole entry): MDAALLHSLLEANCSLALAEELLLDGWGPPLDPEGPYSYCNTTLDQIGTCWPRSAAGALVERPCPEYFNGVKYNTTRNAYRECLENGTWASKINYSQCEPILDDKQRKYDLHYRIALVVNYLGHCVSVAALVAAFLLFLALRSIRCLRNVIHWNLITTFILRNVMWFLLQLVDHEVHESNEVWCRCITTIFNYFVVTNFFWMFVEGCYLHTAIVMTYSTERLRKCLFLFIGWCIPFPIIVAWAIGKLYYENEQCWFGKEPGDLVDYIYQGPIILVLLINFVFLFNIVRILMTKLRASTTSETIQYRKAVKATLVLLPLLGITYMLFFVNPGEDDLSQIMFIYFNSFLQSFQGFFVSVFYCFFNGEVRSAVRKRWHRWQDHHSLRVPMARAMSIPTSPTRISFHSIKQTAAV
T3 sequence (P24387 whole entry): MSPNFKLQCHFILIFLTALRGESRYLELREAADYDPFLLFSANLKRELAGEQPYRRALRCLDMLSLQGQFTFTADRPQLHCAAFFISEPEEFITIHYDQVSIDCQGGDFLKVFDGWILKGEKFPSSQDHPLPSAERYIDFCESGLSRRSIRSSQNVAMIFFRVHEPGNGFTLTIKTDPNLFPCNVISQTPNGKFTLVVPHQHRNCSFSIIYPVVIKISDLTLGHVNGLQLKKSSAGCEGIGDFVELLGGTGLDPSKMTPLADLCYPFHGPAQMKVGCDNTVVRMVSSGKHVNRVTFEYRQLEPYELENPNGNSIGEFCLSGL

[11] = CRF-BP/CRF-R2 complex antagonists, dose response, cell-based, uHTS hits, 384-well (AID 651639); type: functional, Homo sapiens; conditions: read-out: IC50_Mean
[12] = target: T3, Corticotropin-releasing factor receptor 2/Corticotropin-releasing factor-binding protein; assay: activators of CRF receptor 2 with binding protein – uHTS hits, confirmation (AID 602473); type: functional; conditions: read-out: EC50_Mean
HEK293 = assay: inhibitors of LMP1-driven NF-kB reporter, dose response, cell-based, HEK293, luciferase, cherry-pick (AID 588343); type: functional; conditions: Homo sapiens
Interleukin-8 [13] = target: T4, Interleukin-8 (Homo sapiens, UniProt P10145); assay: Dose Response confirmation of uHTS small molecule hits for cystic fibrosis induced NFkb Inhibitors in a TNFa-induced IL8 counterscreen.; type: functional; conditions: read-out: IC50_Mean
T4 sequence (P10145 whole entry): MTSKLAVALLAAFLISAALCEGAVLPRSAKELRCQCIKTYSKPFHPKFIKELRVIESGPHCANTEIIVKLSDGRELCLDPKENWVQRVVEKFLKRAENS

Interleukin-8 [14] = target: T4, Interleukin-8; assay: Dose Response confirmation of uHTS small molecule hits for cystic fibrosis induced NFkb Inhibitors in a PAF-induced IL8 counterscreen.; type: functional; conditions: read-out: IC50_Mean
[15] = target: T5, Sentrin-specific protease 6 (Homo sapiens, UniProt Q9GZR1); assay: SAR Analysis of small molecule inhibitors of Sentrin-specific protease 6 (SENP6) using a Luminescent assay. [Related pubchem assays (depositor defined):AID2582, AID2599]; type: functional
T5 sequence (Q9GZR1 whole entry): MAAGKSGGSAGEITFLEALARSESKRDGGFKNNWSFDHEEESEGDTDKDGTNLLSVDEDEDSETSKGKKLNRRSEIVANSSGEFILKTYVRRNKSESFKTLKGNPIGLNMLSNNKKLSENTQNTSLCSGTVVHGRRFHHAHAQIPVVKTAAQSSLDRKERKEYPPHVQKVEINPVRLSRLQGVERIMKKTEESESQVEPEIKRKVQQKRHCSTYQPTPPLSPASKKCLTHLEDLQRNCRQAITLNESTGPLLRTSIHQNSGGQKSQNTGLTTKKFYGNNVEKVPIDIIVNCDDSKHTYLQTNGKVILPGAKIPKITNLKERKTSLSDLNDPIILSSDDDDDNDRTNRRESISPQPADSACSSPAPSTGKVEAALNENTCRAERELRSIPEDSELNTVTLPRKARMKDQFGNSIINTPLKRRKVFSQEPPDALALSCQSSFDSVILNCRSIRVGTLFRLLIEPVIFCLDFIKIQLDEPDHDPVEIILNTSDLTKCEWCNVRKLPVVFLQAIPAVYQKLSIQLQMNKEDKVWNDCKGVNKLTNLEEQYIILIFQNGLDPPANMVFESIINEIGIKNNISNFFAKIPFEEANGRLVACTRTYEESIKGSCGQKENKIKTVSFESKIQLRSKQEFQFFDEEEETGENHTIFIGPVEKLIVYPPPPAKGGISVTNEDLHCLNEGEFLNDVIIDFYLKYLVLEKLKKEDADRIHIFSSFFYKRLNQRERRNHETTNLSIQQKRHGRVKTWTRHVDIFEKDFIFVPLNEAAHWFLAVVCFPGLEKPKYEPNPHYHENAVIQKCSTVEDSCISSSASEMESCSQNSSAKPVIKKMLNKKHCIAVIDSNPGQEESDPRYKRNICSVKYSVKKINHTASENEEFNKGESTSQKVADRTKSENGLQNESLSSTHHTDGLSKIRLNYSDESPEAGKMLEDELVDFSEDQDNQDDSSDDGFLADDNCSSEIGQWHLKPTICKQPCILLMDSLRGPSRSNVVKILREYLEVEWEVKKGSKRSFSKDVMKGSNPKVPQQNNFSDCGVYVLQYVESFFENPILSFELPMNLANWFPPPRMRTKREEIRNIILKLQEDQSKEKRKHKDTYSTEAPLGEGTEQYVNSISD

Caspase-3 = target: T6, Caspase-3 (Homo sapiens, UniProt P42574); assay: SAR Analysis of small molecule inhibitors of Sentrin-specific proteases (SENPs) using a Caspase-3 Selectivity assay. [Related pubchem assays (depositor defined):AID2540, AID2599, AID434973, AID489001]; type: functional
T6 sequence (P42574 whole entry): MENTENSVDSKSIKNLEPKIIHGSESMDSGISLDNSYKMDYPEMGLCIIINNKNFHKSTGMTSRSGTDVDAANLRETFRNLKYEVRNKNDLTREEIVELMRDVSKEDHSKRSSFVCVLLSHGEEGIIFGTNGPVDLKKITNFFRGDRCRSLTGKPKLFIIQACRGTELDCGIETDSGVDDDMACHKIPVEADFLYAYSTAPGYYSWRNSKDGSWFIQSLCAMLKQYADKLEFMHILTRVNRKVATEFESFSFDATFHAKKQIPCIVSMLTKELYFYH

[16] = target: T7, Sentrin-specific protease 8 (Homo sapiens, UniProt Q96LD8); assay: SENP8 protease inhibitors, SAR follow-up, biochemical, luminescence (AID 504501); type: functional
T7 sequence (Q96LD8 whole entry): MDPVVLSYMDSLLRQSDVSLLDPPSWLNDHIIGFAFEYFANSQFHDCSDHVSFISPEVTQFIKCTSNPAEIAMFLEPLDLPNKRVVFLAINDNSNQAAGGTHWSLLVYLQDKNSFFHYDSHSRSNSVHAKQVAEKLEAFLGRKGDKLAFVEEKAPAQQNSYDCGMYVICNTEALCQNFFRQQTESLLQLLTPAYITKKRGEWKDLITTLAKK

Adenosylmethionine-8-amino-7-oxononanoate aminotransferase, sequence (P9WQ81 whole entry): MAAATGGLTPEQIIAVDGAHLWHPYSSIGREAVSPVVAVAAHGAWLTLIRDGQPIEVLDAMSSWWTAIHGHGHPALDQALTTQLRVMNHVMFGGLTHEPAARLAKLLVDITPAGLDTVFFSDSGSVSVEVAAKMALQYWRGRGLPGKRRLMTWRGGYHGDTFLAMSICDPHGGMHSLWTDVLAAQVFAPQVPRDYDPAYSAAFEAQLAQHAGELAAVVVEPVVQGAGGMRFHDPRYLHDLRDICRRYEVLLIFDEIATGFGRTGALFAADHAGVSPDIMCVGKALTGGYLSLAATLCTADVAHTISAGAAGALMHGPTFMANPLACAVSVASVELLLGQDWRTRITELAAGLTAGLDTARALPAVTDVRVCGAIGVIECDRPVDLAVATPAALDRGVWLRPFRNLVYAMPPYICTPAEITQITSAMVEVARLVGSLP

In the case of `O=C(Nc1ccc2snnc2c1)N1CCOCC1`, the AC50 [1] is reported as 8.02 µM (active).
With `COC(=O)c1ccc(N2CCCCC2)c(NC(=O)c2ccco2)c1` the IC50 [2] was 18.7 µM (inactive), the IC50 (Steroidogenic factor 1) was 3.89 µM (active) and the IC50 [3] was 6.04 µM (active).
In the case of `Cc1cc(Br)cc(Br)c1OCC(=O)NNC(=O)Nc1ccccc1`, the IC50 [4] is reported as 83.3 µM (inactive) and the IC50 [5] is reported as 119 µM (inactive).
For `O=C(Nc1nnc(-c2ccco2)o1)c1ccc(S(=O)(=O)N2CCOCC2)cc1`, the CC50 [6] was > 40 µM (active) and the AC50 [7] was 117 µM (active).
For `O=C(CSc1ccc2nnc(-c3ccccn3)n2n1)Nc1nccs1`, the IC50 (Nonstructural protein 1) was 43.5 µM (active) and the AC50 [7] was 76.4 µM (active).
With `O=C(NC1CCCC(C(F)(F)F)C1)c1ccc([N+](=O)[O-])o1` (stereo not drawn) the CC50 [8] was 8.8 µM (active), the IC50 [2] was 35.9 µM (inactive) and the AC50 [9] was 11.2 µM (active). For the same compound, the IC50 (Steroidogenic factor 1) was 0.772 µM (active) and the IC50 [3] was 23.5 µM (inactive).
With `Cc1ccc([C@H]2C(C(=O)O)=CC[C@@H](c3ccc(Cl)cc3)N2S(=O)(=O)c2ccc(C)cc2)cc1` the IC50 [10] was 19.8 µM (active), the IC50 [11] was > 20 µM (inactive) and the EC50 [12] was 25.4 µM (active).
In the case of `CC1=NN(C(=O)c2ccc(Br)cc2)C(O)(C(F)(F)OC(F)(F)F)C1` (stereo not drawn), the IC50 [10] is reported as 4.84 µM (active), the IC50 [11] is reported as > 20 µM (inactive) and the EC50 [12] is reported as 46 µM (active).
For `Fc1ccc2[nH]c3c(NCCN4CCOCC4)ncnc3c2c1`, the AC50 [1] was 14.9 µM (active).
For `c1nc(NCc2ccc3c(c2)OCO3)c2cc(-c3ccoc3)ccc2n1`, the AC50 (HEK293) was 2.17 µM (active), the IC50 (Interleukin-8 [13]) was > 79 µM (inactive) and the IC50 (Interleukin-8 [14]) was 1.66 µM (active).
With `COc1ccc(C(=O)Nc2ccc3ccccc3c2)cc1OC` the IC50 [15] was > 99 µM (inactive), the IC50 (Caspase-3) was 14.9 µM (active) and the IC50 [16] was > 99 µM (inactive).
